{"source": "paper PMC10046369", "about": "“Low-Affinity/High-Selectivity Dopamine Transport Inhibition Sufficient to Rescue Cognitive Functions in the Aging Rat” (Biomolecules, 2023)", "assay_in_all_cases": "cell-based", "design_in_all_cases": "Eurofins Cerep functional GPCR antagonist assay, reference antagonists", "key": {"[1]": {"target": "T1, 5HT1B (h) (Homo sapiens, UniProt P28222)", "T1 construct": "gene HTR1B", "T1 sequence (P28222 whole entry)": "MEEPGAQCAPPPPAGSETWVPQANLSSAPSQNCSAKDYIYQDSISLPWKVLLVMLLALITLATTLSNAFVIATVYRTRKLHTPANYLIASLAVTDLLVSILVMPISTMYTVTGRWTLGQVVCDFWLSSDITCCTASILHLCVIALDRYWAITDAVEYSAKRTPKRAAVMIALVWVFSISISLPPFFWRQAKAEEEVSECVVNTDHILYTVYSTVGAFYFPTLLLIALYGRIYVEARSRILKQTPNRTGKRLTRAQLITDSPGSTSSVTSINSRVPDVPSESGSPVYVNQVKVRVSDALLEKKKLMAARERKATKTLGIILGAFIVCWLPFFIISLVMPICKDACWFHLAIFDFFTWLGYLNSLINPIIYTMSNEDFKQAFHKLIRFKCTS"}, "[2]": {"target": "T1, 5HT1B (h)", "remark": "listed apart in the source"}, "[3]": {"target": "T2, P2Y1 (h) (Homo sapiens, UniProt P47900)", "T2 construct": "gene P2RY1", "T2 sequence (P47900 whole entry)": "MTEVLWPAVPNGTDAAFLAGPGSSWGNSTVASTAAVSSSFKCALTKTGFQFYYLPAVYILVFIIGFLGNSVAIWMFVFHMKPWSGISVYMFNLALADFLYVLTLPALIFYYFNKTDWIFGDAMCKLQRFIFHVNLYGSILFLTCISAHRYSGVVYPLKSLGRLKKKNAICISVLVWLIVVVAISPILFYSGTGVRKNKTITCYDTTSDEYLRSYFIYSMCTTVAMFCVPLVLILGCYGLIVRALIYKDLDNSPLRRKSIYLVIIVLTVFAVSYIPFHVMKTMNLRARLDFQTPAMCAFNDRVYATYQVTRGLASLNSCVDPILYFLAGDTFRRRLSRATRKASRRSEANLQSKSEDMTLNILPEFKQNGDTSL"}, "[4]": {"target": "T2, P2Y1 (h)", "remark": "listed apart in the source"}, "[5]": {"target": "T3, 5-HT2B (h) (Homo sapiens, UniProt P41595)", "T3 construct": "gene HTR2B", "T3 sequence (P41595 whole entry)": "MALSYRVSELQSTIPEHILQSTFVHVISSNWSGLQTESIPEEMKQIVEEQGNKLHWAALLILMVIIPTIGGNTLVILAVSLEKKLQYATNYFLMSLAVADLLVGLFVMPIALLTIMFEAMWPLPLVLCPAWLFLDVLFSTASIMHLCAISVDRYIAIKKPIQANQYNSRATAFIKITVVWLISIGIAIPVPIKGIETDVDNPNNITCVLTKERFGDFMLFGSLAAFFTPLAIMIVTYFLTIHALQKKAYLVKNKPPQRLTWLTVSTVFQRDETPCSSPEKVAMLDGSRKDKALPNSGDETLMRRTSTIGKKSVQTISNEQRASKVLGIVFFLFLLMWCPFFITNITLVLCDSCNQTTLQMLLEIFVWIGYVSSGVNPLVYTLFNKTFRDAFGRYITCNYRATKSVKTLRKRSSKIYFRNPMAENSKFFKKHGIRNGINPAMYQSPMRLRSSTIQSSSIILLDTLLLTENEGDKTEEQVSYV"}, "[6]": {"target": "T3, 5-HT2B (h)", "remark": "listed apart in the source"}}, "note": "pIC50: −log10 of the molar value.", "data": [{"molecule": "CN(C)CCCc1cc(C(=O)Nc2ccc(-c3ccncc3)cc2)ccc1O", "note": "[GR55562]", "values": [{"measurement": "Kb", "setting": "[1]", "result": 11, "unit": "nM"}, {"measurement": "pIC50", "setting": "[2]", "result": 7.16}]}, {"molecule": "CNc1nc(I)nc2c1ncn2[C@H]1C[C@H](OP(=O)(O)O)[C@]2(COP(=O)(O)O)C[C@H]12", "note": "[MRS 2500]", "values": [{"measurement": "Kb", "setting": "[3]", "result": 0.43, "unit": "nM"}, {"measurement": "pIC50", "setting": "[4]", "result": 8.72}]}, {"molecule": "Cn1ccc2cc3c(cc21)CCN3C(=O)Nc1cccnc1", "note": "[SB 206553]", "values": [{"measurement": "Kb", "setting": "[5]", "result": 2.9, "unit": "nM"}, {"measurement": "pIC50", "setting": "[6]", "result": 7.72}]}]}
